Assays:
[1] = tested on: ErbB3 phosphorylation in 9 tumor cell lines; assay: pErbB3 inhibition ELISA across 9 tumor cell lines versus ErbB2 expression; format: cell-based; settings: 5×10^4 to 2.4×10^6 ErbB2 receptors/cell
[2] = tested on: BT-474-M3 xenograft; assay: combination with trastuzumab in BT-474-M3 xenograft model; format: in vivo, athymic nude mice (nu/nu); settings: single agent
Description: Mice receive a subcutaneous estrogen-releasing implant in the opposite flank (0.72 mg pellet, 60 day, slow-release, Innovative Research of America, Sarasota, Fla.) 24 h prior to the injection of 20×10^6 human BT-474-M3cells in PBS. Dosing is initiated when tumor growth is established (tumor volumes of approximately 400 mm^3). Tumors are measured twice a week using digital calipers. Tumor volume is calculated using the formula: π/6×(W^2×L), where W is the short diameter and L is the long diameter.

## B2B3-1: bispecific scFv antibody fusion: anti-ErbB3 scFv H3 and anti-ErbB2 scFv B1D2 joined by a modified human serum albumin (HSA) linker
[1]
  % pErbB3 inhibition in relation to ErbB2 expression levels: correlates positively
[2]; B2B3-1 3 mg/kg q3d
  mice with completely regressed tumors: 0 out of 10
[2]; B2B3-1 10 mg/kg q3d
  mice with completely regressed tumors: 0 out of 10

Reference: patent US20110059076A1, “HUMAN SERUM ALBUMIN LINKERS AND CONJUGATES THEREOF” (priority 2008, published 2011)
